Tested on: Atlantic salmon (Salmo salar L.) hepatocytes
Format: in vitro ADME
Experimental: The isolated hepatocytes were incubated with 35 nmol, 2.5 μCi of [1-^14C] 18:3 (n-3) as well as non radiolabeled 18:3 (n-3), final concentration 7 μM, in 5 ml of L 15 culture medium without FBS. The radio labeled FA was added to the medium as potassium salt bound to BSA. To each experimental flask (4 radiolabeled and 7 with non-radiolabeled 18:3 (n-3)), DMSO (7.4 μl/5 ml) with sesamin (final concentration 0.05 mM) was added and to each control flasks (4 radiolabeled and 7 with non-radiolabeled 18:3 (n-3)), only DMSO (7.4 μl/5 ml) was added, in another two flasks sesamin but no FA was added. The cells were incubated at 12° C. for 48 h. The radiolabeled experiment flasks with and without sesamin (4 each) were washed and harvested in PBS for further analysis of β-oxidation and radiolabeled lipid classes and radiolabeled cellular fatty acids. The cells in the two flasks with no FA substrate added were denaturated after the incubation and thereafter added radiolabeled substrate in order to be used as a negative control for the ASP measurements and HPLC analyses. In the non-labeled study, control and sesamin flask (4 each) were washed in PBS prior to isolation of mRNA according to the protocol RNeasy® Mini Kit for gene expression analysis and 3 flasks of each control and sesamin were washed and harvested in PSB for fatty acid and sesamin analysis.

c1cc2c(cc1C1OCC3C(c4ccc5c(c4)OCO5)OCC13)OCO2 (stereo not drawn) [episesamin, 2,6-bis-(3,4-methylenedioxyphenyl)-trans-3,7-dioxabicyclo[3.3.0]octane]
bioavailability in hepatocytes compared with sesamin: higher

Reference: patent US20100144865A1, “COMPOUND FEED FOR AQUACULTURE” (priority 2007, published 2010)
